Tests used:
[1] = molecular target: 5-HT6 (Homo sapiens, UniProt P50406); test: 5-HT6 binding
Description: (§1) Curves are evaluated using a 4-parameter logistic nonlinear equation to obtain the concentration of competitor causing 50% inhibition of radioligand binding (IC50). Equilibrium dissociation constants (Ki) are calculated according to the equation Ki=IC50/(1+L/Kd), where L equals the concentration of radioligand used in the experiment and Kd equals the equilibrium dissociation constant of the radioligand for the receptor, determined from standard saturation analysis or homologous competition experiments. Reported values for Ki, where n values are indicated, are shown as geometric mean±the standard error of the mean (SEM), with the number of replicate determinations indicated by n. Geometric means are calculated by the equation GeoMean=10̂(Average(log Ki 1+log Ki 2+ . . . log Ki n)/[…]).
(§2) Further, the compounds of the invention may be tested in binding assays and functional activity assays by well known methods for other physiologically important receptors such as, but not limited to, the hERG channel, other serotonin receptors (specifically 5-HT1B receptors, lack of agonist activity at 5-HT2B receptors, 5-HT2C, 5-HT5, 5-HT6, and 5-HT7 receptors), dopaminergic receptors (specifically D1, D2, and D3), H1 receptors, GABAA receptors, adrenergic receptors and monoamine transporters.

[2] = molecular target: Adrenergic alpha1A (Homo sapiens, UniProt P35348); test: Adrenergic alpha1A binding
Description: as §1, §2

[3] = molecular target: Adrenergic alpha2C (Homo sapiens, UniProt P18825); test: Adrenergic alpha2C binding
Description: as §1, §2

[4] = tested on: DOI induced headshake response; test: Inhibition of DOI induced headshake activity; format: in vivo, male C57BL/6J mice; conditions: mice, PO, 60 min. pre-treatment, DOI 3 mg/kg subcutaneously
Description: (see for example Bartoszyk G D, van Amsterdam C, Böttcher H, Seyfried C A. EMD 281014, a new selective serotonin 5-HT2A receptor antagonist. Eur J Pharmacol. 2003 473: 229-230.) This assay has also be used as an indicator of anti-psychotic therapeutic potential. Briefly, male C57BL/6J mice (20-25 g, Charles River) are housed in standard housing conditions (32 mice in a large IVC cage, 07.00 to 19.00 light phase, constant temperature (19-23° C.) and humidity (50%+/−10), ad lib food and water). Mice received either vehicle (0.25% Methyl cellulose), DOI (3 mg/kg in saline) or test compound at doses up to 10 mg/kg PO plus DOI (3 mg/kg in saline). Test compounds are individually evaluated at 4 doses with n=4 for each dose, together with vehicle and DOI+vehicle (n=8). After a test compound pre-treatment time of 60 min. the mice receive either vehicle (saline) or 3 mg/kg DOI dosed subcutaneously, and are then placed into clear perspex observation chambers. […] The data is analyzed using an ANOVA and post-hoc Dunnet's Test. The compounds of Example 1 and Example 2 are tested essentially as described and are found to inhibit the DOI induced headshake response with an approximate EC50 of 0.5 mg/kg for both compounds.

[5] = tested on: MK-801 induced locomotor hyperactivity; test: MK-801 induced locomotor hyperactivity in mice; format: in vivo; conditions: for Distance traveled during habituation with vehicle or compound, Mean: 1 hr. habituation before MK-801; for Distance traveled after administration of vehicle or 0.1 mg/Kg MK-801, Mean: 2 hrs after MK-801 0.1 mg/kg SC
From the text: MK-801 induced locomotor hyperactivity in mice: The rodent MK-801 induced locomotor hyperactivity assay has been used as a predictor of anti-psychotic therapeutic potential (Corbett, R., Camacho, F., Woods, A. T., Kerman, L. L., Fishkin, R. J., Brooks, K., and Dunn, R. W. Antipsychotic agents antagonize non-competitive N-methyl-D-aspartate antagonist-induced behaviors. Psychopharmacology (1995) vol. 120: 67-74). Compounds of the invention may be evaluated for their ability to reduce locomotor hyperactivity elicited by the NMDA receptor antagonist MK-801. Studies are conducted in the dark. Locomotor activity is measured in clear Perspex™ boxes (40×40×30 cm) based on infrared fields (100×100 cm). Sixteen boxes are used, four on each field, each monitored using overhead infrared cameras (Sanyo VCV-3412P, TrackSys Ltd, UK). The cameras feed into a Quad Videoswitch (VQ403-C), TrackSys Ltd, UK), which in turn feeds a PC running the image analysis application Ethovision v8 (Noidus, NL).
All treatment tzroups have initial sample sizes of n=8. Mice are assigned to groups using a pseudorandomised block method where treatments are balanced across the time of day of testing and the test room used. On the test day, animals are transported to the testing room ante-chamber in their home cages and dosed with the test compound (0.3-3 mg/kg po) or vehicle before being placed individually into the test boxes for 1 hr., during which time locomotor activity is measured. Following this habituation period, animals are dosed with MK-801 (0.1 mg/kg SC) or vehicle as appropriate and then replaced into the test boxes where locomotor activity is measured for a further 2 hrs. The measurement of interest for LMA studies is the distance moved (cm). Unless stated otherwise, points on all graphs are plotted as the mean±standard errors.
Data are imported into STATISTICA (v9) for statistical analyses. A general linear model approach is used for all multivariate ANOVAs calculated for the data. Following ANOVA, planned comparisons are used to investigate significant differences from the control animals. Statistical significances are denoted by the following symbols: *p<0.05, **p<0.01. Mean values calculated in Statistica are imported into SigmaPlot (v11) to graph the data.

[6] = molecular target: recombinant human 5-HT2A receptor (Homo sapiens, UniProt P28223); test: 5-HT2A competition binding assay ([3H]-Ketanserin, SPA); set-up: expressed in transfected cells
Description: [^3H]-Ketanserin binding experiments are carried out in SPA 96-well format. Membranes used in this assay are prepared from AV-12 cells stably expressing recombinant 5-HT2A receptors (human). The incubation is initiated by the addition of a mixture of WGA YSi SPA beads (1 mg/well, Perkin Elmer (MA, USA), Product No. RPNQ0011) and 2 μg membranes to assay buffer (67 mM Tris, 0.5 mM EDTA; pH 7.6) containing 3.1 nM [^3H]-Ketanserin and varying concentrations of the test compound (10 point concentration response curves). Non-specific binding is determined in the presence of 20 μM 1-(1-naphthyl)piperazine. Samples are incubated for 4 hr. at room temperature (22° C.) and then read in a microplate scintillation counter.
Curves are evaluated using a 4-parameter logistic nonlinear equation to obtain the concentration of competitor causing 50% inhibition of radioligand binding (IC50). Equilibrium dissociation constants (Ki) are calculated according to the equation Ki=IC50/(1+L/Kd), where L equals the concentration of radioligand used in the experiment and Kd equals the equilibrium dissociation constant of the radioligand for the receptor, determined from standard saturation analysis or homologous competition experiments. […]

Sequence of 5-HT6 (P50406 whole entry, species assumed): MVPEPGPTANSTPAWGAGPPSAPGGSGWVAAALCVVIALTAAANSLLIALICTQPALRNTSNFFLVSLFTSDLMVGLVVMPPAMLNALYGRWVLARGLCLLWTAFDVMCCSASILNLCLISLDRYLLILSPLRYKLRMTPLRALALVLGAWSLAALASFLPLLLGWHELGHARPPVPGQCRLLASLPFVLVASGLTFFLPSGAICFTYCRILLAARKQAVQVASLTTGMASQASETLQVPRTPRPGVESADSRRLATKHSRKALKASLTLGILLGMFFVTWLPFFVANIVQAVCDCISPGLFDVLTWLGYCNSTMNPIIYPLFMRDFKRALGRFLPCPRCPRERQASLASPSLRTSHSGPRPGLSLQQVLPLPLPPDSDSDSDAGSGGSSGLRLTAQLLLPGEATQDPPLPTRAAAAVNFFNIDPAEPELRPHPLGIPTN
Sequence of Adrenergic alpha2C (P18825 whole entry): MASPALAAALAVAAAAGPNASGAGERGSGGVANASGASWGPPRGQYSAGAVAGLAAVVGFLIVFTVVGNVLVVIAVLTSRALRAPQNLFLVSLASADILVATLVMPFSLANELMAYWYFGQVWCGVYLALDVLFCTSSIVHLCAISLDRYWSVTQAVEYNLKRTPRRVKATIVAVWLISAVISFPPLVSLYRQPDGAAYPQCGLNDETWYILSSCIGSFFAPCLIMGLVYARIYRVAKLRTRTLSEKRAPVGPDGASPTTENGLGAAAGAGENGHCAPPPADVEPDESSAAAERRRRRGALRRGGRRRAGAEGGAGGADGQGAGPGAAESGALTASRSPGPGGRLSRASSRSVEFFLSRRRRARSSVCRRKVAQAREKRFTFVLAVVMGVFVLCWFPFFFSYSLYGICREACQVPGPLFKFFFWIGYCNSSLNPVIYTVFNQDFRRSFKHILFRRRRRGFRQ
Sequence of Adrenergic alpha1A (P35348 whole entry): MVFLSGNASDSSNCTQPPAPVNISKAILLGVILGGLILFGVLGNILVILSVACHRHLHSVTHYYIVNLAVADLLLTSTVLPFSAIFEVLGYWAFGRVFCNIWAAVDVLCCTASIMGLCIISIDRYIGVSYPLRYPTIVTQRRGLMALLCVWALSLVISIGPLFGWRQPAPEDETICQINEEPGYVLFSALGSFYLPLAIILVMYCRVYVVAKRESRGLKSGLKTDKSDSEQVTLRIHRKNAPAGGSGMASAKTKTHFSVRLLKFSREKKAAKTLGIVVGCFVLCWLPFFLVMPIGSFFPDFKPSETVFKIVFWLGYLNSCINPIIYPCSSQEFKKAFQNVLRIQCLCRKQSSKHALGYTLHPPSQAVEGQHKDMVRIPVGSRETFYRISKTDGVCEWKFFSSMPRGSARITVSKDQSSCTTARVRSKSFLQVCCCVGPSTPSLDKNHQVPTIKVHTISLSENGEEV
Sequence of recombinant human 5-HT2A receptor (P28223 whole entry): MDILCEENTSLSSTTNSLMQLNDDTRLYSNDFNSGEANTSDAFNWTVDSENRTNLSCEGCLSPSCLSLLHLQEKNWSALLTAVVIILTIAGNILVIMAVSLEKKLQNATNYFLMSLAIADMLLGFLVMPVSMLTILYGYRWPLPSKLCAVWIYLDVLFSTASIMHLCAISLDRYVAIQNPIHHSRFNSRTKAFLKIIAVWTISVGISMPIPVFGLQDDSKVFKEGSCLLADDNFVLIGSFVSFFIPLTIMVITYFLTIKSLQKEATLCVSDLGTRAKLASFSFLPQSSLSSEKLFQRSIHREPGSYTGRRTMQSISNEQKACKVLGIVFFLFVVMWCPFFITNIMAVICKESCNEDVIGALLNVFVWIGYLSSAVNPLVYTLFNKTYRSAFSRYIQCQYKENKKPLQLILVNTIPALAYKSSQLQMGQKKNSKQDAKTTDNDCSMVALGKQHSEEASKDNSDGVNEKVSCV

**Q.** With `Cc1ccc2c(c1)Oc1sc(SC(C)C)cc1C(N1CCN(CC(C)(C)C(=O)O)CC1)=N2` [Example 1, 3-[4-(2-isopropylsulfanyl-8-methyl-thieno[2,3-b][1,5]benzoxazepin-4-yl)piperazin-1-yl]-2,2-dimethyl-propanoic acid] as the molecule, how does the Ki [1] read?
**A.** 1130 nM

**Q.** What about the Ki [2] of the same molecule?
**A.** 4450 nM

**Q.** What about the Ki [3] of the same molecule?
**A.** > 6430 nM

**Q.** What about the “approximate EC50, inhibition of DOI induced headshake response” value [4] of the same molecule?
**A.** ~0.5 mg/kg

**Q.** And the “Distance traveled during habituation with vehicle or compound, Mean” value (“Distance traveled during habituation” for short) ([5]; 0.3 mg/Kg po)?
**A.** 9336.73 cm

**Q.** What about the “Distance traveled after administration of vehicle or 0.1 mg/Kg MK-801, Mean” value (shortened to “Distance traveled after administration”) ([5]; 0.3 mg/Kg po) of the same molecule?
**A.** 8492.08 cm

**Q.** And the “Distance traveled during habituation” value ([5]; 1.0 mg/Kg po)?
**A.** 8939.48 cm

**Q.** What about the “Distance traveled after administration” value ([5]; 1.0 mg/Kg po) of the same molecule?
**A.** 7258.87 cm

**Q.** What about the “Distance traveled during habituation” value ([5]; 3.0 mg/Kg po) of the same molecule?
**A.** 7682.77 cm

**Q.** What about the “Distance traveled after administration” value ([5]; 3.0 mg/Kg po) of the same molecule?
**A.** 7085.68 cm

**Q.** And the “effect on MK-801 induced locomotor hyperactivity (in words)” value ([5]; 0.3-3 mg/kg po)?
**A.** significantly block

**Q.** What about the Ki [6] of the same molecule?
**A.** 4.84 nM

Reference: patent US20150322083A1, “(THIENO[2,3-b][1,5]BENZOXAZEPIN-4-YL)PIPERAZIN-1-YL COMPOUNDS AS SELECTIVE 5-HT2A INVERSE AGONISTS” (Eli Lilly and Company, priority 2014, published 2015)
